Results reported in patent US4290952A, “Aryl-1-mercaptoalkanoylproline and homoproline derivatives” (American Home Products Corporation, priority 1980, dated 1981).

How the values were obtained:
[1] = tested on: male spontaneously hypertensive rats; test: Blood pressure lowering in spontaneously hypertensive rats (systolic pressure, caudal plethysmograph); assay type: in vivo, rat
Method: In addition, the blood pressure lowering ability of the compounds of this invention was established by measuring the systolic pressure of male spontaneously hypertensive rats with a Decker Caudal Plethysmograph. The compounds tested were administered orally and blood pressure was read prior to and at 1.5, 4 and 24 hours after drug administration.

[2] = tested on: angiotensin converting enzyme; test: In vivo inhibition of angiotensin converting enzyme: blood pressure responses to i.v. angiotensin I in conscious normotensive rat after oral dosing; conditions: 10 mg/kg, 10 minutes post dosing, mean two animals
Method: The in vitro experiments were confirmed following the procedure of Rubin et al, J. Pharmacol. Exp. Ther 204 721 (1978) whereby jugular vein and carotid artery cannulae are placed in an ether anesthetized, normotensive,male, Spraque-Dawley rat for injection of compounds and direct recording of systemic arterial pressure, respectively. The blood pressure responses in the conscious animal to i.v. injections of angiotensin I (300 ng/kg), angiotensin II (100 ng/kg) and bradykinin (10 μg/kg) are recorded and compared with identical doses administered at various time intervals after oral dosing of the angiotensin converting enzyme inhibitor of this invention.

[3] = molecular target: T1, angiotensin converting enzyme (Oryctolagus cuniculus, UniProt P12822); test: Inhibition of hippuryl-L-histidyl-L-leucine hydrolysis by angiotensin converting enzyme, in vitro; assay type: biochemical, rabbit
T1 construct: A crude angiotensin converting enzyme supernatant is obtained by blending 1 gm. of rabbit lung acetone powder; tissue Pel-Freez Biologicals; host or cells: rabbit lung (acetone powder; crude 40,000 xg supernatant)
T1 sequence (P12822 34-1310): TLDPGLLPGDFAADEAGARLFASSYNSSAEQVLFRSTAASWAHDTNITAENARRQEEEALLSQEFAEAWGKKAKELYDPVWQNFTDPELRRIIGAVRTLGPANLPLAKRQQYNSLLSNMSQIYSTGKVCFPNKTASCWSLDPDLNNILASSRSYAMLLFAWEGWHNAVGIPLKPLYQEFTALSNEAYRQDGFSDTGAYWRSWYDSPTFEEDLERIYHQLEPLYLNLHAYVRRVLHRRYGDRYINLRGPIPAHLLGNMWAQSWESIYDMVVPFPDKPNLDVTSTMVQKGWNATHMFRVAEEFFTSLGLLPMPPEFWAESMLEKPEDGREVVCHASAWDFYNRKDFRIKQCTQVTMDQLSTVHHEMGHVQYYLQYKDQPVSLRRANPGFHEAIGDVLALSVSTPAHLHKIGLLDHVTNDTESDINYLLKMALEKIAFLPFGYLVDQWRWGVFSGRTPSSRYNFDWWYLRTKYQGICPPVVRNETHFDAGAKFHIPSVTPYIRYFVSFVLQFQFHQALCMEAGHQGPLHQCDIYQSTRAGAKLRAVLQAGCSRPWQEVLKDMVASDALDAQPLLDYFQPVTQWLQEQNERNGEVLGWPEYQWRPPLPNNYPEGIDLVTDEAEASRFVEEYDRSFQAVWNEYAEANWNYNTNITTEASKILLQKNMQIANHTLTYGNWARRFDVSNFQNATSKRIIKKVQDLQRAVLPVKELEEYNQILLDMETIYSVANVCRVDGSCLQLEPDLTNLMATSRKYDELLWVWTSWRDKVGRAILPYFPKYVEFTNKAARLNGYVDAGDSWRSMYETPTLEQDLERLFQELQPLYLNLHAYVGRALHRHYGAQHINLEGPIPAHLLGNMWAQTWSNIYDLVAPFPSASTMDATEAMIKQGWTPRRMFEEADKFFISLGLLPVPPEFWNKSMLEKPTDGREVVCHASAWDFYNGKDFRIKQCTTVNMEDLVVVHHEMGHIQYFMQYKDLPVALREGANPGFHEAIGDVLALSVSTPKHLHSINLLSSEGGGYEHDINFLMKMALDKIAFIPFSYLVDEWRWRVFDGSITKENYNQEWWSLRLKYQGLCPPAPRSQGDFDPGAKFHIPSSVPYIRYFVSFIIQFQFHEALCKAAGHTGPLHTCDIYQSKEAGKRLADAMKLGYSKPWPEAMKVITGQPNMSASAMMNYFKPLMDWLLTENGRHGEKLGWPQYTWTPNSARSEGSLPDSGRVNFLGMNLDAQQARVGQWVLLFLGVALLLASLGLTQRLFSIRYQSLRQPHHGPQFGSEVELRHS
Method: The activity of the compounds of this invention was established by incubation of hippuryl-L-histidyl-L-leucine at 37° C. with angiotensin converting enzyme by the following procedure:
A crude angiotensin converting enzyme supernatant is obtained by blending 1 gm. of rabbit lung acetone powder (Pel-Freez Biologicals) with 35 ml of 50 mM (buffered) potassium phosphate, pH 8.3 and centrifuging for 45 min. at 40,000 xg.
The specific angiotensin converting enzyme substrate Hippuryl-L-histidyl-L-leucine (HHL--Sigma Chem. Co.) is prepared at 5 mM in 200 mM potassium phosphate buffer containing 757 mM NaCl at pH 8.3.
Incubation for the assay of HHL hydrolysis by angiotensin converting enzyme is carried out in a 37° C. gyrorotary incubator in disposable 13×100 mm tubes. Each 0.25 ml assay mixture contains the following components at the final concentrations: potassium phosphate buffer, 100 mM; NaCl, 300 mM; HHL, 5 mM; and enzyme 0.15 ml (10 mU approx.) added last to initiate the reaction. Zero time controls have 0.25 ml of 2 N HCl added before the enzyme. The timed reactions are terminated with acid at 30 min. similarly and the hippuric acid freed from substrate is extracted into 1.5 ml of ethylacetate by vortex mixing for 15 sec. After 5 min. centrifugation in a clinical centrifuge, a 1.0 ml aliquot of the ethyl acetate layer is transferred to a clean tube. These aliquots are evaporated to dryness by heating (120° C.) in a Temp-Block module heater.
The hippuric acid is resuspended in 1.0 ml of water, the absorbance at 228 nm is determined, and the amount present is calculated from a standard curve. The amount of hippuric acid×1.1 (extraction coefficient)×1.5 (ratio of volumes)×1 μM hippuric acid/[…]×1/30 min.=nM hippuric acid released/min. Enzyme activity in the presence of an inhibitor is compared with control activity, and reported as a percentage inhibition. (Cushman, D. W. and Cheung, H. S., Biochem. Pharmacol. 20 1637 (1971).

| SMILES | reduction of systolic blood pressure in spontaneously hypertensive rats ([1]; 50 mg/kg oral dose, four hours after administration) | inhibition in vivo [2] | inhibition at 0.1 µg/mL ([3]; 100 ng/ml) | reduction of systolic blood pressure in spontaneously hypertensive rats ([1]; 50 mg/kg orally administered) | inhibition of angiotensin converting enzyme in vitro ([3]; 100 ng/ml) | inhibition of angiotensin converting enzyme in vitro ([3]; 1000 ng/ml) | reduction of blood pressure in the rat ([1]; 10 mg/kg, oral) | inhibition at 0.001 µg/mL ([3]; 1 ng/ml) | inhibition at 0.01 µg/mL ([3]; 10 ng/ml) | inhibition at 0.05 µg/mL ([3]; 50 ng/ml) |
| --- | --- | --- | --- | --- | --- | --- | --- | --- | --- | --- |
| O=C(O)[C@@H]1CC[C@H](c2ccccc2)N1C(=O)CCS (relative stereo) [Example four, cis-1-(3-Mercaptopropanoyl)-5-phenyl proline] | 21 millimeters | 65% | 72% |  |  |  |  |  |  |  |
| COc1ccc([C@H]2CC[C@@H](C(=O)O)N2C(=O)CCS)cc1OC (relative stereo) [Example two, cis-1-(3-Mercaptopropanoyl)-5-(3,4-Dimethoxyphenyl)proline] |  | 72% | 40% | 23 mmHg |  |  |  |  |  |  |
| CC(CSC(=O)c1ccccc1)C(=O)N1[C@@H](c2ccccc2)CC[C@H]1C(=O)O (single isomer, unassigned) [α-acid of Example 7, 5-Phenyl-1-(3-benzoylthio-2-methyl-1-oxopropyl)proline] |  |  |  |  | 3% | 17% |  |  |  |  |
| CC(CSC(=O)c1ccccc1)C(=O)N1[C@@H](c2ccccc2)CC[C@H]1C(=O)O (single isomer, unassigned) [β-acid of Example 7, 5-Phenyl-1-(3-benzoylthio-2-methyl-1-oxopropyl)proline] |  |  |  |  | 84% | 99% | 37 mmHg | 20% | 40% | 75% |
